# Reference: patent publication US6703404B2, “Tert -butyl-(7-methyl-imidazol [1,2-a]pyridin-3-yl)-amine derivatives” (Gruenenthal GmbH, priority 1999, dated 2004)
# Where a name gives a salt, the structure may show the parent alone.
# Assays:
# NO synthase [1] = molecular target: T1, NO synthase (Rattus norvegicus, UniProt P29476); test: HTS-NOS assay (labelled arginine, filter plate); assay type: biochemical; parameters: from tissue; host or cells: rat cerebellum (20,000 g supernatant of homogenate); conditions: 10 μm test substance; enzyme from rat cerebellum
# Experimental: This assay enabled the percentage inhibition of NO synthase to be determined by measuring the NOS activity on the action of the active ingredient. NO synthase was mixed with radioactively labelled arginine and the active ingredient under suitable conditions. After terminating the NO-forming reaction at a predetermined time, the amount of unreacted arginine was determined directly or indirectly. Comparison of this amount with the amount of arginine remaining from a mixture of NOS and arginine without the addition of active ingredient but under conditions which were otherwise the same gave the % inhibition of NO synthase by the active ingredient tested. This assay was performed as follows:
# (a) Incubation of NO synthase, with labelled arginine as a substrate, in a reaction vessel.
# (b) Separation of the labelled arginine from any labelled citrulline which was formed as a product of the enzymatic reaction at a time at which the concentration of citrulline was increasing.
# (c) Measuring the amount of arginine separated in each case.
# Separation was effected through a filter plate membrane.
# This NOS assay was particularly suitable for “High Throughput Screening” (HTS) on microtitration plates (MTPs).
# In this HTS-NOS assay, radioactive arginine was used as the substrate. The assay volume can be selected within the range from […] depending on the type of microtitration plate (MTP). Cofactors and coenzymes were added depending on the enzyme source used. Batches were incubated in this microtitration plate (assay MTP) according to step (a) at room temperature, for between 5 and 60 minutes depending on the enzyme activity (units) employed. At the end of the incubation (step (a)) the plate was placed in a cell harvester which was fitted with an MTP comprising a cation exchange membrane filter base (filter MTP). All the batches from the assay MTP were transferred to this filter MTP and were filtered off under suction through a cation exchange filter plate comprising a paper filter containing phosphate groups. […] By means of this procedure, the remaining arginine substrate was bound to the cation exchanger, whilst the enzymatically formed radioactive citrulline was quantitatively removed by washing. After drying the filter MTP and adding a scintillation liquid, the bound arginine was counted in a scintillation counter. An uninhibited NOS reaction was manifested by a low level of radioactivity. An inhibited enzyme reaction meant that the radioactive arginine had not reacted, i.e. the filter contained a high level of radioactivity. […]
# The contents of the assay MTP were subsequently transferred by means of a 96-well cell harvester into a 96-well cation exchanger MTP (filter MTP) and was filitered under suction. […] After a holding time of 1 hour, the plate was measured in a βcounter. […]
# NO synthase [2] = molecular target: T1, NO synthase; test: Citrulline assay (Bredt and Snyder); assay type: biochemical
# Experimental: This assay was performed as described by D. S. Bredt and S. H. Snyder (Proc. Natl. Acad. Sci. USA (1990), 87, 682-85).
HTS-NOS assay: %-inhibition (10 μm) (NO synthase [1]),IC50 (NO synthase [2]),Molecule,other results
,,"Cc1cc(C)n2c(NC(C)(C)C)c(C3CCCCC3)nc2c1 [Example 5, tert-butyl-(2-cyclohexyl-5,7-dimethyl-imidazo[1,2-a]pyridin-3-yl)-amine]",inhibition at 10 µM (NO synthase [1]): 63%
59%,,Cc1cc(C)n2c(NC(C)(C)C)c(-c3ccc([N+](=O)[O-])o3)nc2c1 [Example 9],
61%,,"Cc1ccn2c(NC(C)(C)C)c(-c3ccc(C(=O)O)s3)nc2c1 [Example 17, 5-(3-tert-butylamino-7-methyl-imidazo[1,2-a]pyridin-2-yl)-thiophen-12-carboxylic acid]",
,2800 nM,"Cc1cc(C)n2c(NC(C)(C)C)c(-c3ccco3)nc2c1 [Example 18, tert-butyl-(2-furan-2-yl-5,7-dimethyl-imidazo[1,2-a]pyridin-3-yl)amine hydrochloride]",
,2400 nM,"Cc1ccn2c(NC(C)(C)C)c(-c3ccccc3)nc2c1 [Example 19, tert-butyl-(7-methyl-2-phenylimidazo[1,2-a]pyridin-3-yl)amine hydrochloride]",

Molecule,HTS-NOS assay: %-inhibition (10 μm) (NO synthase [1]),IC50 (NO synthase [2]),other results
"Cc1cc(C)n2c(NC(C)(C)C)c(C)nc2c1 [Example 20, tert-butyl-(2,5,7-trimethyl[1,2-a]pyridin-3-yl)amine hydrochloride]",,9200 nM,
"[5-(3-tert-butyl-7-methyl-imidazo[1,2-a]pyridin-2-yl)-furan-2-yl]-methanol [Example 10]",52%,,
